In US9296703B2, “Substituted N-(3-(pyrimidin-4-yl)phenyl)acrylamide analogs as tyrosine receptor kinase BTK inhibitors” (University of Utah Research Foundation, priority 2012, dated 2016):

Molecular target: recombinant full-length human BTK kinase (Homo sapiens (Human), UniProt Q06187)
Test: BTK kinase assay: ADP generation assay (ADP-Glo)
Type: biochemical
Conditions: 60 nM BTK, 1.6 μM ATP, 20 μM MBP substrate, 60 min at room temperature
Experimental: The primary assay for compound inhibitory activity was the ADP generation assay described herein. Test compounds were diluted to desired concentrations in kinase reaction buffer and briefly incubated with recombinant full-length human BTK kinase with a (His)6 tag (81.3 kDa; Invitrogen Corporation, Carlsbad, Calif.). The assay as described is based on volumes used in a standard 384 well format using solid, white-wall plates. The reaction was subsequently initiated by the addition of ATP and myelin basic protein (MBP) substrate (Millipore Corporation, Waltham, Mass.). Composition of the assay reaction mixture ([…]) was: 5% v/v DMSO, 60 nM BTK, 1.6 μM ATP, and 20 μM MBP substrate. […] Luminescence was measured on an EnVision® microplate reader (PerkinElmer). The amount of luminescence from each reaction is directly correlated with BTK kinase activity. Percent inhibition and IC50 values were calculated by comparing enzyme activity in drug-treated wells to the appropriate controls.
IC50 values are determined using GraphPad Prism 5 software. […]
Activity (IC50) was determined in the BTK assays describe herein above, i.e. either the ADP generation assay and/or the time-resolved FRET assay, and the data are shown in Table III. […]

Sequence of recombinant full-length human BTK kinase (Q06187 whole entry): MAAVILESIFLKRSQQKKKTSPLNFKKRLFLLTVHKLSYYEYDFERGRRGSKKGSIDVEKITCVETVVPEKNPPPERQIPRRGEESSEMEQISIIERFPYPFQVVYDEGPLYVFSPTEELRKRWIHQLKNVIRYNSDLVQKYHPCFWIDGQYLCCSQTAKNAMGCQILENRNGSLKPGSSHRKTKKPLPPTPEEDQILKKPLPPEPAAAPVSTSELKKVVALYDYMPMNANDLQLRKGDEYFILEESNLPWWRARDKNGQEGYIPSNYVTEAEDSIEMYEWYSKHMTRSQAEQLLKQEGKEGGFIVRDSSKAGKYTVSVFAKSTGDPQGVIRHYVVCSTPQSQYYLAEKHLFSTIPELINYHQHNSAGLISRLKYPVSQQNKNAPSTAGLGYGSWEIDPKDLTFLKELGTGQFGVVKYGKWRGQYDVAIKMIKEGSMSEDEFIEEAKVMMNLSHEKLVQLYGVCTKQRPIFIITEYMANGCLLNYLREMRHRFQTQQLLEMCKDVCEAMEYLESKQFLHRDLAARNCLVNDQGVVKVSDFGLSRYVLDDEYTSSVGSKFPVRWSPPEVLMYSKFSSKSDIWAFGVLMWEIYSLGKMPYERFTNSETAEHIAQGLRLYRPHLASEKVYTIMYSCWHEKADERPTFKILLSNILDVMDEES

| Compound | IC50 [µM] |
| --- | --- |
| C=CC(=O)Nc1cccc(-c2nc(Nc3ccc(N4CCOCC4)c(O)c3)ncc2Cl)c1 [Compound 1, N-(3-(5-chloro-2-((3-hydroxy-4-morpholinophenyl)amino)pyrimidin-4-yl)phenyl)acrylamide] | 0.004 |
| C=CC(=O)Nc1cccc(-c2nc(Nc3ccc(N4CCOCC4)c(OP(=O)(OC(C)C)OC(C)C)c3)ncc2Cl)c1 [Compound 2, 5-((4-(3-acrylamidophenyl)-5-chloropyrimidin-2-yl)amino)-2 - morpholinophenyl diisopropyl phosphate] | 3.58 |
